Results as given in PubChem BioAssay (NCI).
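GI50 is the concentration that inhibits growth by half. TGI is the concentration that stops growth completely.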

Experiments:
Test in all cases: inhibition of tumour cell growth, NCI panel, 384-well format
PC-3 prostate = tested on: PC-3 prostate
TK-10 renal = tested on: TK-10 renal
SK-MEL-28 melanoma = tested on: SK-MEL-28 melanoma
HCT-15 colon = tested on: HCT-15 colon
CAKI-1 renal = tested on: CAKI-1 renal
OVCAR-5 ovarian = tested on: OVCAR-5 ovarian
BT-549 breast = tested on: BT-549 breast
SF-539 CNS = tested on: SF-539 CNS
HT29 colon = tested on: HT29 colon
UACC-62 melanoma = tested on: UACC-62 melanoma
MDA-MB-468 breast = tested on: MDA-MB-468 breast
NCI-H522 lung = tested on: NCI-H522 lung
A498 renal = tested on: A498 renal
UACC-257 melanoma = tested on: UACC-257 melanoma
NCI-H23 lung = tested on: NCI-H23 lung
DU-145 prostate = tested on: DU-145 prostate
CCRF-CEM leukemia = tested on: CCRF-CEM leukemia
NCI-H226 lung = tested on: NCI-H226 lung
U251 glioblastoma = tested on: U251 glioblastoma
ACHN renal = tested on: ACHN renal
HCC-2998 colon = tested on: HCC-2998 colon
RXF 393 renal = tested on: RXF 393 renal
RPMI-8226 leukemia = tested on: RPMI-8226 leukemia
LOX IMVI melanoma = tested on: LOX IMVI melanoma
MALME-3M melanoma = tested on: MALME-3M melanoma
SF-295 CNS = tested on: SF-295 CNS
A549 NSCLC = tested on: A549 NSCLC
HOP-62 NSCLC = tested on: HOP-62 NSCLC
MDA-MB-231 breast = tested on: MDA-MB-231 breast
HL-60(TB) leukemia = tested on: HL-60(TB) leukemia
SN12C renal = tested on: SN12C renal
KM12 colon = tested on: KM12 colon
SNB-75 CNS = tested on: SNB-75 CNS
SR leukemia = tested on: SR leukemia
NCI/ADR-RES ovarian = tested on: NCI/ADR-RES ovarian
K-562 leukemia = tested on: K-562 leukemia
HCT-116 colon = tested on: HCT-116 colon
MCF7 breast = tested on: MCF7 breast
SK-OV-3 ovarian = tested on: SK-OV-3 ovarian
NCI-H460 NSCLC = tested on: NCI-H460 NSCLC
EKVX NSCLC = tested on: EKVX NSCLC
OVCAR-3 ovarian = tested on: OVCAR-3 ovarian
NCI-H322M lung = tested on: NCI-H322M lung
IGROV1 ovarian = tested on: IGROV1 ovarian
OVCAR-4 ovarian = tested on: OVCAR-4 ovarian
T-47D breast = tested on: T-47D breast
COLO 205 colon = tested on: COLO 205 colon
SK-MEL-5 melanoma = tested on: SK-MEL-5 melanoma
HOP-92 NSCLC = tested on: HOP-92 NSCLC
SF-268 CNS = tested on: SF-268 CNS
SNB-19 CNS = tested on: SNB-19 CNS
MOLT-4 leukemia = tested on: MOLT-4 leukemia
UO-31 renal = tested on: UO-31 renal
SK-MEL-2 melanoma = tested on: SK-MEL-2 melanoma
M14 melanoma = tested on: M14 melanoma
MDA-MB-435 melanoma = tested on: MDA-MB-435 melanoma
786-0 renal = tested on: 786-0 renal
SW-620 colon = tested on: SW-620 colon
HS 578T breast = tested on: HS 578T breast

CCCCc1nc2cc(/C=C/C(=O)NO)ccc2n1CCN(CC)CC
GI50 (PC-3 prostate): 185 nM
TGI (PC-3 prostate): 689 nM
GI50 (TK-10 renal): 258 nM
TGI (TK-10 renal): 948 nM
GI50 (SK-MEL-28 melanoma): 179 nM
TGI (SK-MEL-28 melanoma): 465 nM
GI50 (HCT-15 colon): 483 nM
TGI (HCT-15 colon): 2110 nM
GI50 (CAKI-1 renal): 206 nM
TGI (CAKI-1 renal): 709 nM
GI50 (OVCAR-5 ovarian): 119 nM
TGI (OVCAR-5 ovarian): 484 nM
GI50 (BT-549 breast): 230 nM
TGI (BT-549 breast): 1160 nM
GI50 (SF-539 CNS): 415 nM
TGI (SF-539 CNS): 2480 nM
GI50 (HT29 colon): 203 nM
TGI (HT29 colon): 809 nM
GI50 (UACC-62 melanoma): 83.4 nM
TGI (UACC-62 melanoma): 235 nM
GI50 (MDA-MB-468 breast): 134 nM
TGI (MDA-MB-468 breast): 356 nM
GI50 (NCI-H522 lung): 34.3 nM
TGI (NCI-H522 lung): 247 nM
GI50 (A498 renal): 298 nM
TGI (A498 renal): 1070 nM
GI50 (UACC-257 melanoma): 178 nM
TGI (UACC-257 melanoma): 561 nM
GI50 (NCI-H23 lung): 296 nM
TGI (NCI-H23 lung): 1440 nM
GI50 (DU-145 prostate): 120 nM
TGI (DU-145 prostate): 375 nM
GI50 (CCRF-CEM leukemia): 62.3 nM
TGI (CCRF-CEM leukemia): 206 nM
GI50 (NCI-H226 lung): 697 nM
TGI (NCI-H226 lung): 2100 nM
GI50 (U251 glioblastoma): 174 nM
TGI (U251 glioblastoma): 503 nM
GI50 (ACHN renal): 221 nM
TGI (ACHN renal): 955 nM
GI50 (HCC-2998 colon): 106 nM
TGI (HCC-2998 colon): 414 nM
GI50 (RXF 393 renal): < 10 nM
TGI (RXF 393 renal): 237 nM
GI50 (RPMI-8226 leukemia): < 10 nM
TGI (RPMI-8226 leukemia): 17 nM
GI50 (LOX IMVI melanoma): 203 nM
TGI (LOX IMVI melanoma): 588 nM
GI50 (MALME-3M melanoma): 130 nM
TGI (MALME-3M melanoma): 402 nM
GI50 (SF-295 CNS): 186 nM
TGI (SF-295 CNS): 397 nM
GI50 (A549 NSCLC): 321 nM
TGI (A549 NSCLC): 1270 nM
GI50 (HOP-62 NSCLC): 250 nM
TGI (HOP-62 NSCLC): 1640 nM
GI50 (MDA-MB-231 breast): 187 nM
TGI (MDA-MB-231 breast): 613 nM
GI50 (HL-60(TB) leukemia): 144 nM
TGI (HL-60(TB) leukemia): 280 nM
GI50 (SN12C renal): 286 nM
TGI (SN12C renal): 1290 nM
GI50 (KM12 colon): 280 nM
TGI (KM12 colon): 1420 nM
GI50 (SNB-75 CNS): 119 nM
TGI (SNB-75 CNS): 1630 nM
GI50 (SR leukemia): < 10 nM
TGI (SR leukemia): 107 nM
GI50 (NCI/ADR-RES ovarian): 489 nM
TGI (NCI/ADR-RES ovarian): 2330 nM
GI50 (K-562 leukemia): 17.5 nM
TGI (K-562 leukemia): 205 nM
GI50 (HCT-116 colon): 125 nM
TGI (HCT-116 colon): 377 nM
GI50 (MCF7 breast): 185 nM
TGI (MCF7 breast): 1130 nM
GI50 (SK-OV-3 ovarian): 239 nM
TGI (SK-OV-3 ovarian): 911 nM
GI50 (NCI-H460 NSCLC): 235 nM
TGI (NCI-H460 NSCLC): 1320 nM
GI50 (EKVX NSCLC): 649 nM
TGI (EKVX NSCLC): 4320 nM
GI50 (OVCAR-3 ovarian): 181 nM
TGI (OVCAR-3 ovarian): 974 nM
GI50 (NCI-H322M lung): 206 nM
TGI (NCI-H322M lung): 1140 nM
GI50 (IGROV1 ovarian): 119 nM
TGI (IGROV1 ovarian): 539 nM
GI50 (OVCAR-4 ovarian): 392 nM
TGI (OVCAR-4 ovarian): 1950 nM
GI50 (T-47D breast): 136 nM
TGI (T-47D breast): 310 nM
GI50 (COLO 205 colon): 178 nM
TGI (COLO 205 colon): 419 nM
GI50 (SK-MEL-5 melanoma): 129 nM
TGI (SK-MEL-5 melanoma): 290 nM
GI50 (HOP-92 NSCLC): 176 nM
TGI (HOP-92 NSCLC): 518 nM
GI50 (SF-268 CNS): 174 nM
TGI (SF-268 CNS): 602 nM
GI50 (SNB-19 CNS): 511 nM
TGI (SNB-19 CNS): 1980 nM
GI50 (MOLT-4 leukemia): 30.9 nM
TGI (MOLT-4 leukemia): 197 nM
GI50 (UO-31 renal): 82.9 nM
TGI (UO-31 renal): 1520 nM
GI50 (SK-MEL-2 melanoma): 169 nM
TGI (SK-MEL-2 melanoma): 339 nM
GI50 (M14 melanoma): 358 nM
TGI (M14 melanoma): 1710 nM
GI50 (MDA-MB-435 melanoma): 226 nM
TGI (MDA-MB-435 melanoma): 616 nM
GI50 ([…]-0 renal): 317 nM
TGI (786-0 renal): 2000 nM
GI50 (SW-620 colon): 166 nM
TGI (SW-620 colon): 334 nM
GI50 (HS 578T breast): 125 nM
TGI (HS 578T breast): 317 nM
